Tests used:
Type in all cases: in vivo
[1] = system: Rhipicephalus microplus larvae (strain Parkhurst, resistant against synthetic pyrethroids); assay: Rhipicephalus (Boophilus) microplus in-vitro contact test, larval cattle tick; conditions: 5 μg/cm^2 (=500 g/ha), after 48 hours, read-out: efficacy (larvae dead or moribund)
In short: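 Compound in acetone coated onto the inner walls of glass tubes (900 ppm giving 5 μg/cm^2), solvent evaporated, then 20–50 larvae added and held at 27 °C, 85% RH. After 48 h, efficacy scored from negative geotactic behaviour as % dead or moribund larvae.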

[2] = system: adult engorged female ticks (Rhipicephalus microplus); assay: Rhipicephalus (Boophilus) microplus injection test; conditions: 168 h, egg deposition after 7 days, read-out: efficacy (infertile eggs); for pest or weed control at 0.004 mg: 4 μg/animal
In short: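 Five adult engorged female ticks each injected into the abdomen with 1 μL of compound in DMSO, then kept in a climate chamber. Fertile egg deposition assessed after 7 days, with unclear eggs held until hatching around 42 days; efficacy 100% means all eggs infertile, 0% all fertile.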

[3] = system: adult cat fleas (Ctenocephalides felis); assay: Ctenocephalides felis in-vitro contact test, adult cat flea; conditions: 5 μg/cm^2 (=500 g/ha), after 48 hours
In short: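 After 48 h of room-temperature exposure in tubes whose walls carried dried compound residue (5 μg/cm^2, from 900 ppm acetone solution), adult cat fleas (5-10 per tube) were heat-challenged at 45-50° C up to 5 min. Fleas unable to climb away were counted dead or moribund, expressed as % efficacy.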

[4] = system: adult unfed cat fleas (Ctenocephalides felis); assay: Ctenocephalides felis oral test; conditions: 48 h
In short: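 About 20 adult unfed fleas fed through parafilm on cattle blood containing compound (DMSO stock diluted in blood), blood held at 37 °C and fleas at room temperature. Mortality (%) scored after 2 days.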

[5] = system: adult brown dog ticks (Rhipicephalus sanguineus); assay: Rhipicephalus sanguineus in-vitro contact test with adult brown dog ticks; conditions: 5 μg/cm^2 (=500 g/ha), after 48 hours, read-out: efficacy (ticks dead or moribund)
In short: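 Glass tubes are coated with compound dissolved in acetone, a 900 ppm solution yielding 5 μg/cm^2 on the inner surface. Adult ticks (5-10 per tube) are kept on the dry film at room temperature for 48 h, then those unable to escape 45-50° C heat are counted as dead or moribund.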

[6] = system: larvae of the banded cucumber beetle (Diabrotica balteata); assay: Diabrotica balteata spray test; conditions: 168 h, 100 g/ha (=32 μg/well), wheat seeds, after 7 days, read-out: efficacy (seedling growth)
In short: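 Efficacy in % was read 7 days after infesting with 10-20 larvae per unit. Before infestation, 1-day-germinated wheat seedlings (5 per well) were sprayed with the active ingredient, formulated in acetone and dimethylformamide plus emulsifier and diluted with water containing emulsifier.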

[7] = system: green peach aphid (Myzus persicae); assay: Myzus persicae oral test; conditions: 120 h
In short: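 Compound was dissolved in acetone, diluted with water and mixed into IPL41 insect medium with sugar under a parafilm seal. A mixed aphid population fed through the parafilm, and mortality (%) was scored after 5 days.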

[8] = system: fall armyworm larvae (Spodoptera frugiperda); assay: Spodoptera frugiperda spray test (maize leaf sections); conditions: 168 h
In short: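 Percent kill of Spodoptera frugiperda caterpillars read at day 7. Larvae placed on dried Zea mays leaf pieces previously sprayed with test preparation, made from acetone plus DMF and diluted with emulsifier-containing water (1000 ppm).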

Row | SMILES | pest or weed control at 5 µg/cm2 [1] [%] | pest or weed control at 0.004 mg [2] [%] | pest or weed control at 0.02 mg ([2]; 20 μg/animal) [%] | efficacy (fleas dead or moribund) [3] [%] | mortality at 100 ppm [4] [%] | pest or weed control at 5 µg/cm2, 500 g/ha [5] [%] | pest or weed control at 32 µg/disc, 100 g/ha [6] [%] | mortality at 4 ppm [7] [%] | mortality at 100 g/ha [8] [%]
1 | C[C@H](NC(=O)c1cc(C(F)(F)F)cc(C(F)(F)F)c1)c1ncnn1-c1ncc(C#N)s1 [I-2] | 100 | 100 | 100 | 80 | 100 | 100 | 100 | 100 | 100
2 | Cc1nc([C@H](C)NC(=O)c2cc(C(F)(F)F)cc(C(F)(F)F)c2)n(-c2ncc(C(=O)N(C)CC3CC3)s2)n1 [I-4] | 100 | 100 | – | 100 | 100 | 100 | 100 | 100 | 100
3 | Cc1nc([C@H](C)NC(=O)c2cc(C(F)(F)F)cc(C(F)(F)F)c2)n(-c2ncc(C(=O)N(C)C)s2)n1 [I-5, 2-(5-{(1S)-1-[3,5-bis(trifluoromethyl)benzamido]ethyl}-3-methyl-1H-1,2,4-triazol-1-yl)-N,N-dimethyl-1,3-thiazole-5-carboxamide] | 100 | 100 | – | 100 | 100 | 100 | 100 | 100 | 100
4 | CCN(C)C(=O)c1cnc(-n2nc(C)nc2[C@H](C)NC(=O)c2cc(C(F)(F)F)cc(C(F)(F)F)c2)s1 [I-6] | 100 | 100 | – | 100 | 100 | 100 | 100 | 100 | 100
5 | Cc1nc([C@H](C)NC(=O)c2cc(C(F)(F)F)cc(C(F)(F)F)c2)n(-c2ncc(C(=O)N(C)CC#N)s2)n1 [I-9] | 100 | 100 | – | 100 | 100 | 100 | 100 | 100 | 100
6 | Cc1nc([C@H](C)NC(=O)c2cc(C(F)(F)F)cc(C(F)(F)F)c2)n(-c2ncc(C(N)=O)s2)n1 [I-21, 2-(5-{(1S)-1-[3,5-bis(trifluoromethyl)benzamido]ethyl}-3-methyl-1H-1,2,4-triazol-1-yl)-1,3-thiazole-5-carboxamide] | 100 | 100 | – | 100 | 100 | 100 | 100 | 100 | 100

From patent US20230065953A1, “NOVEL HETEROARYL-TRIAZOLE COMPOUNDS AS PESTICIDES” (Bayer Aktiengesellschaft, priority 2019, published 2023)
